# Literature values as cited in US20090023700A1, “NEUROPROTECTIVE TREATMENTS” (University of Louisville Research Foundation, priority 2007, published 2009).
# System: AP1
# Details: macrophages; cited from earlier work
smiles,measurement,value
"O=C(O)c1ccccn1.OO.OO.[K+].[K+].[O]=[V] [bpV(pic), potassium bisperoxo(pyridine-2-carboxylato)oxovanadate(V)]",AP1 activation,does not
